*1 amine or outer side, *2 acyl side, *3 side chain or, on linkers, in order; H or OH if unused. Where a SMILES comes first, the peptide text is derived from it. [ ]: non-standard residue; d: D form. Glyψ(E-CHCH)Leu = CC(C)C[C@H](/C=C/CN[*:1])C(=O)[*:2]; Glyψ(CH2S)Leu = CC(C)C[C@H](SCCN[*:1])C(=O)[*:2]; X8 = O=C(CSC[C@H](Cc1ccccc1)N[*:1])[*:2]; Phe(4-Me) = Cc1ccc(C[C@H](N)C(=O)O)cc1; X1 = CC(C)C[C@H](CCCN[*:1])C(=O)[*:2]; Arg(Me) = CNC(=N)NCCC[C@H](N)C(=O)O; Dap(CONH2) = NC(=O)NC[C@H](N)C(=O)O; Ala(cPr) = N[C@@H](CC1CC1)C(=O)O; Hyp = O=C(O)[C@@H]1C[C@@H](O)CN1; αMeF = C[C@](N)(Cc1ccccc1)C(=O)O; Aad = N[C@@H](CCCC(=O)O)C(=O)O; Cha = N[C@@H](CC1CCCCC1)C(=O)O; Nva = CCC[C@H](N)C(=O)O; Abu = CC[C@H](N)C(=O)O
System: metastin receptors
Assay: Measurement of agonist activity by assaying changes in intracellular calcium ion level (FLIPR, Fluo-4 NW)
Assay type: cell-based, human
Settings: specific activity of the EC50 of a test compound based on the EC50 of Metastin (45-54), metastin receptor expression CHO cells
In short: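 CHO/dhfr⁻ cells stably expressing human or rat metastin receptor, seeded 3×10^4/well for 24 h, loaded with Fluo-4 NW 30 min at 37 °C in HBSS with 0.1% BSA, 20 mM HEPES pH 7.4 and 1 mM probenecid. Compound-stimulated intracellular calcium change read on FLIPR.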

Specific Activity	Compound
1.1	CNC(=N)NCCC[C@H](NC(=O)[C@@H](CCCNC(=O)[C@H](CC1CCCCC1)NC(=O)[C@@H](NC(=O)[C@H](CNC(N)=O)NC(=O)[C@@H]1C[C@@H](O)CN1C(=O)[C@@H](Cc1ccc(O)cc1)NC(C)=O)[C@@H](C)O)CC(C)C)C(=O)N[C@@H](Cc1c[nH]c2ccccc12)C(N)=O [Compound No. 957, des(1)-Ac-[D-Tyr2,Hyp3,Alb4,Thr5,Cha6,Gly7Ψ(CH2CH2)Leu8,Arg(Me)9,Trp10]MS10] (Ac-[dY][Hyp][Dap(CONH2)]T[Cha][X1][Arg(Me)]W-NH2)
0.7	CCC[C@H](NC(=O)CNC(=O)[C@H](Cc1ccccc1)NC(=O)[C@@H](NC(=O)[C@H](CC(N)=O)NC(=O)[C@@H]1C[C@@H](O)CN1C(=O)[C@@H](Cc1ccc(O)cc1)NC(C)=O)[C@@H](C)O)C(=O)N[C@@H](CCCNC(=N)NC)C(=O)N[C@@H](Cc1c[nH]c2ccccc12)C(N)=O [Compound No. 918, des(1)-Ac-[D-Tyr2,Hyp3,Thr5,Nva8,Arg(Me)9,Trp10]MS10] (Ac-[dY][Hyp]NTFG[Nva][Arg(Me)]W-NH2)
4.6	CNC(=N)NCCC[C@H](NC(=O)[C@@H](/C=C/CNC(=O)[C@H](CC1CCCCC1)NC(=O)[C@@H](NC(=O)[C@H](CCC(=O)O)NC(=O)[C@@H]1C[C@@H](O)CN1C(=O)[C@@H](Cc1ccc(O)cc1)NC(C)=O)[C@@H](C)O)CC(C)C)C(=O)N[C@@H](Cc1c[nH]c2ccccc12)C(N)=O [Compound No. 915, des(1)-Ac-[D-Tyr2,Hyp3,Glu4,Thr5,Cha6,Gly7Ψ((E)CH═CH)Leu8,Arg(Me)9,Trp10]MS10] (Ac-[dY][Hyp]ET[Cha][Glyψ(E-CHCH)Leu][Arg(Me)]W-NH2)
1.2	CNC(=N)NCCC[C@H](NC(=O)[C@H](CC(C)C)NC(=O)CNC(=O)[C@H](Cc1ccccc1)NC(=O)[C@@H](NC(=O)[C@H](CC(N)=O)NC(=O)[C@@H]1C[C@@H](O)CN1C(=O)[C@@H](Cc1ccc(O)cc1)NC(C)=O)[C@@H](C)O)C(=O)N[C@@H](Cc1c[nH]c2ccccc12)C(N)=O [Compound No. 796, des(1)-Ac-[D-Tyr2,Hyp3,Thr5,Arg(Me)9,Trp10]MS10] (Ac-[dY][Hyp]NTFGL[Arg(Me)]W-NH2)
2.5	CNC(=N)NCCC[C@H](NC(=O)[C@H](CC1CC1)NC(=O)CNC(=O)[C@H](CC1CCCCC1)NC(=O)[C@@H](NC(=O)[C@H](CC(N)=O)NC(=O)[C@H](CC(=O)O)NC(=O)[C@@H](Cc1ccc(O)cc1)NC(C)=O)[C@@H](C)O)C(=O)N[C@@H](Cc1c[nH]c2ccccc12)C(N)=O [Compound No. 909, des(1)-Ac-[D-Tyr2,Asp3,Thr5,Cha6,Ala(cPr)8,Arg(Me)9,Trp10]MS10] (Ac-[dY]DNT[Cha]G[Ala(cPr)][Arg(Me)]W-NH2)
0.9	CNC(=N)NCCC[C@H](NC(=O)[C@H](CC(C)C)NC(=O)CNC(=O)[C@H](Cc1ccc(C)cc1)NC(=O)[C@@H](NC(=O)[C@H](CC(N)=O)NC(=O)[C@@H]1C[C@@H](O)CN1C(=O)[C@@H](Cc1ccc(O)cc1)NC(C)=O)[C@@H](C)O)C(=O)N[C@@H](Cc1c[nH]c2ccccc12)C(N)=O [Compound No. 875, des(1)-Ac-[D-Tyr2,Hyp3,Thr5,Phe(4Me)6,Arg(Me)9,Trp10]MS10] (Ac-[dY][Hyp]NT[Phe(4-Me)]GL[Arg(Me)]W-NH2)
0.5	CNC(=N)NCCC[C@H](NC(=O)[C@H](CC(C)C)NC(=O)[C@H](C)NC(=O)[C@H](CC1CCCCC1)NC(=O)[C@@H](NC(=O)[C@H](CC(N)=O)NC(=O)[C@@H]1C[C@@H](O)CN1C(=O)[C@@H](Cc1ccc(O)cc1)NC(C)=O)[C@@H](C)O)C(=O)N[C@@H](Cc1c[nH]c2ccccc12)C(N)=O [Compound No. 823, des(1)-Ac-[D-Tyr2,Hyp3,Thr5,Cha6,Ala7,Arg(Me)9,Trp10]MS10] (Ac-[dY][Hyp]NT[Cha]AL[Arg(Me)]W-NH2)
1.7	CNC(=N)NCCC[C@H](NC(=O)[C@H](CC(C)C)SCCNC(=O)[C@H](CC1CCCCC1)NC(=O)[C@@H](NC(=O)[C@H](CC(N)=O)NC(=O)[C@@H]1C[C@@H](O)CN1C(=O)[C@@H](Cc1ccc(O)cc1)NC(C)=O)[C@@H](C)O)C(=O)N[C@@H](Cc1c[nH]c2ccccc12)C(N)=O [Compound No. 931, des(1)-Ac-[D-Tyr2,Hyp3,Thr5,Cha6,Gly7Ψ(CH2S)Leu8,Arg(Me)9,Trp10]MS10] (Ac-[dY][Hyp]NT[Cha][Glyψ(CH2S)Leu][Arg(Me)]W-NH2)
0.5	CNC(=N)NCCC[C@H](NC(=O)[C@@H](/C=C/CNC(=O)[C@H](CC1CCCCC1)NC(=O)[C@@H](NC(=O)[C@H](CC(N)=O)NC(=O)[C@H](CCC(=O)O)NC(=O)[C@@H](Cc1ccc(O)cc1)NC(C)=O)[C@@H](C)O)CC(C)C)C(=O)N[C@@H](Cc1c[nH]c2ccccc12)C(N)=O [Compound No. 904, des(1)-Ac-[D-Tyr2,Glu3,Thr5,Cha6,Gly7Ψ((E)CH═CH)Leu8,Arg(Me)9,Trp10]MS10] (Ac-[dY]ENT[Cha][Glyψ(E-CHCH)Leu][Arg(Me)]W-NH2)
0.7	CNC(=N)NCCC[C@H](NC(=O)[C@H](CC(C)C)NC(=O)CSC[C@H](Cc1ccccc1)NC(=O)[C@@H](NC(=O)[C@H](CC(N)=O)NC(=O)[C@@H]1C[C@@H](O)CN1C(=O)[C@@H](Cc1ccc(O)cc1)NC(C)=O)[C@@H](C)O)C(=O)N[C@@H](Cc1c[nH]c2ccccc12)C(N)=O [Compound No. 944, des(1)-Ac-[D-Tyr2,Hyp3,Thr5,Phe6Ψ(CH2S)Gly7,Arg(Me)9,Trp10]MS10] (Ac-[dY][Hyp]NT[X8]L[Arg(Me)]W-NH2)
0.6	CNC(=N)NCCC[C@H](NC(=O)[C@H](CC(C)C)NC(=O)CNC(=O)[C@H](CC1CCCCC1)NC(=O)[C@@H](NC(=O)[C@H](CC(N)=O)NC(=O)[C@H](CCC(=O)O)NC(=O)[C@@H](Cc1ccc(O)cc1)NC(C)=O)[C@@H](C)O)C(=O)N[C@@H](Cc1c[nH]c2ccccc12)C(N)=O [Compound No. 853, des(1)-Ac-[D-Tyr2,Glu3,Thr5,Cha6,Arg(Me)9,Trp10]MS10] (Ac-[dY]ENT[Cha]GL[Arg(Me)]W-NH2)
0.3	CNC(=N)NCCC[C@H](NC(=O)[C@H](CC(C)C)NC(=O)CNC(=O)[C@H](CC1CCCCC1)NC(=O)[C@@H](NC(=O)[C@H](CC(N)=O)NC(=O)[C@@H]1C[C@@H](O)CN1C(=O)[C@@H](Cc1ccc(O)cc1)NC(C)=O)[C@@H](C)O)C(=O)N[C@@H](Cc1c[nH]c2ccccc12)C(N)=O [Compound No. 822, des(1)-Ac-[D-Tyr2,Hyp3,Thr5,Cha6,Arg(Me)9,Trp10]MS10] (Ac-[dY][Hyp]NT[Cha]GL[Arg(Me)]W-NH2)
1.0	CC[C@H](NC(=O)[C@H](Cc1ccccc1)NC(=O)[C@@H](NC(=O)[C@H](CC(N)=O)NC(=O)[C@@H]1C[C@@H](O)CN1C(=O)[C@@H](Cc1ccc(O)cc1)NC(C)=O)[C@@H](C)O)C(=O)N[C@@H](CC(C)C)C(=O)N[C@@H](CCCNC(=N)NC)C(=O)N[C@@H](Cc1c[nH]c2ccccc12)C(N)=O [Compound No. 818, des(1)-Ac-[D-Tyr2,Hyp3,Thr5,Abu7,Arg(Me)9,Trp10]MS10] (Ac-[dY][Hyp]NTF[Abu]L[Arg(Me)]W-NH2)
0.5	CNC(=N)NCCC[C@H](NC(=O)[C@H](COC)NC(=O)CNC(=O)[C@H](CC1CCCCC1)NC(=O)[C@@H](NC(=O)[C@H](CC(N)=O)NC(=O)[C@@H]1C[C@@H](O)CN1C(=O)[C@@H](Cc1ccc(O)cc1)NC(C)=O)[C@@H](C)O)C(=O)N[C@@H](Cc1c[nH]c2ccccc12)C(N)=O [Compound No. 920, des(1)-Ac-[D-Tyr2,Hyp3,Thr5,Cha6,Ser(Me)8,Arg(Me)9,Trp10]MS10] (Ac-[dY][Hyp]NT[Cha]GS(Me)[Arg(Me)]W-NH2)
3.8	CNC(=N)NCCC[C@H](NC(=O)[C@H](CC(C)C)NC(=O)CNC(=O)[C@](C)(Cc1ccccc1)NC(=O)[C@@H](NC(=O)[C@H](CC(N)=O)NC(=O)[C@@H]1C[C@@H](O)CN1C(=O)[C@@H](Cc1ccc(O)cc1)NC(C)=O)[C@@H](C)O)C(=O)N[C@@H](Cc1c[nH]c2ccccc12)C(N)=O [Compound No. 869, des(1)-Ac-[D-Tyr2,Hyp3,Thr5,αMePhe6,Arg(Me)9,Trp10]MS10] (Ac-[dY][Hyp]NT[αMeF]GL[Arg(Me)]W-NH2)
0.4	CC(=O)N[C@H](Cc1ccc(O)cc1)C(=O)N[C@@H](CCC(=O)O)C(=O)N[C@@H](CC(N)=O)C(=O)N[C@H](C(=O)N[C@@H](CC1CCCCC1)C(=O)NCC(=O)N[C@@H](CC1CC1)C(=O)N[C@@H](CCCNC(=N)N)C(=O)N[C@@H](Cc1c[nH]c2ccccc12)C(N)=O)[C@@H](C)O [Compound No. 942, des(1)-Ac-[D-Tyr2,Glu3,Thr5,Cha6,Ala(cPr)8,Trp10]MS10] (Ac-[dY]ENT[Cha]G[Ala(cPr)]RW-NH2)
1.1	CNC(=N)NCCC[C@H](NC(=O)[C@H](CC1CC1)NC(=O)CNC(=O)[C@H](CC1CCCCC1)NC(=O)[C@@H](NC(=O)[C@H](CC(N)=O)NC(=O)[C@H](CCCC(=O)O)NC(=O)[C@@H](Cc1ccc(O)cc1)NC(C)=O)[C@@H](C)O)C(=O)N[C@@H](Cc1c[nH]c2ccccc12)C(N)=O [Compound No. 910, des(1)-Ac-[D-Tyr2,Aad3,Thr5,Cha6,Ala(cPr)8,Arg(Me)9,Trp10]MS10] (Ac-[dY][Aad]NT[Cha]G[Ala(cPr)][Arg(Me)]W-NH2)
0.5	CNC(=N)NCCC[C@H](NC(=O)[C@@H](/C=C/CNC(=O)[C@H](CC1CCCCC1)NC(=O)[C@@H](NC(=O)[C@H](CNC(N)=O)NC(=O)[C@H](CCC(=O)O)NC(=O)[C@@H](Cc1ccc(O)cc1)NC(C)=O)[C@@H](C)O)CC(C)C)C(=O)N[C@@H](Cc1c[nH]c2ccccc12)C(N)=O [Compound No. 905, des(1)-Ac-[D-Tyr2,Glu3,Alb4,Thr5,Cha6,Gly7Ψ((E)CH═CH)Leu8,Arg(Me)9,Trp10]MS10] (Ac-[dY]E[Dap(CONH2)]T[Cha][Glyψ(E-CHCH)Leu][Arg(Me)]W-NH2)

Compound	Specific Activity
des(1)-Ac-[D-Tyr2,Hyp3,Alb4,Ala5,Cha6,Ala(cPr)8,Arg(Me)9,Trp10]MS10 (Ac-[dY][Hyp][Dap(CONH2)]A[Cha]G[Ala(cPr)][Arg(Me)]W-NH2; SMILES CNC(=N)NCCC[C@H](NC(=O)[C@H](CC1CC1)NC(=O)CNC(=O)[C@H](CC1CCCCC1)NC(=O)[C@H](C)NC(=O)[C@H](CNC(N)=O)NC(=O)[C@@H]1C[C@@H](O)CN1C(=O)[C@@H](Cc1ccc(O)cc1)NC(C)=O)C(=O)N[C@@H](Cc1c[nH]c2ccccc12)C(N)=O) [Compound No. 947]	0.5

— patent US7786083B2, “Metastin derivatives and use thereof” (Takeda Pharmaceutical Company Limited, priority 2006, dated 2010)
